Measured values published in patent US20250387375A1, “SOFALCONE DERIVATIVES AND MEDICAL USE THEREOF” (KAOHSIUNG MEDICAL UNIVERSITY, priority 2024, published 2025).

What was measured:
[1] = test system: FeCl3-induced carotid artery thrombosis; assay: Ferric chloride-induced carotid artery thrombosis in mice; assay type: in vivo, BALB/c mice; conditions: oral gavage
Protocol: Mice were orally administered by gavage with sofalcone (SFC, once daily for 4 days), derivative 17, or aspirin (ASA) (single administration only). The mice are then treated with ferric chloride solution to induce carotid artery thrombosis, and an ultrasound imaging system was used to monitor the time required for the thrombus to block the carotid artery (occlusion time). Data are presented as mean±standard […] error of the mean (n≥6). Compared with the control group, *P<0.05, ***P<0.001. In this experiment, a ferric chloride-induced arterial injury was used to evaluate the antithrombotic effect of the to-be-tested compound. The to-be-tested compound was orally administered by gavage to BALB/c mice aged approximately 6-8 weeks. Then, the mice were anesthetized with isoflurane, the right carotid artery was exposed through surgery, and filter paper (2×4 mm^2) containing 8.5% ferric chloride was attached to the right carotid artery for 3 minutes. After removing the filter paper, remaining ferric chloride was wiped off with cotton balls soaked with physiological saline, and an ultrasonic imaging system (VEVO 2100 system, VisualSonics) equipped with a Doppler flow probe (MS400, 18-38 MHz) was used to monitor the blood flow of the right carotid artery. The occlusion time was determined when the blood flow completely stopped for at least 1 minute. If the occlusion time was longer than 30 minutes, it was considered the end point of the experiment.

TxA2 receptor = target: T1, TxA2 receptor (Homo sapiens, UniProt P21731); assay: Competitive antagonism of U46619-induced platelet aggregation (U46619 concentration-response curves); assay type: cell-based; conditions: for mode of action at TxA2 receptor: concluded from parallel right shift of U46619 curves; for U46619 concentration-platelet aggregation response curve / maximum level of platelet aggregation: U46619 0.1-10 μM
T1 construct: The blood samples were centrifuged to obtain platelets, and residual plasma was removed by washing to prepare platelet suspension; endogenous in cells; host or cells: washed human platelets from healthy donors
T1 sequence (P21731 1-343): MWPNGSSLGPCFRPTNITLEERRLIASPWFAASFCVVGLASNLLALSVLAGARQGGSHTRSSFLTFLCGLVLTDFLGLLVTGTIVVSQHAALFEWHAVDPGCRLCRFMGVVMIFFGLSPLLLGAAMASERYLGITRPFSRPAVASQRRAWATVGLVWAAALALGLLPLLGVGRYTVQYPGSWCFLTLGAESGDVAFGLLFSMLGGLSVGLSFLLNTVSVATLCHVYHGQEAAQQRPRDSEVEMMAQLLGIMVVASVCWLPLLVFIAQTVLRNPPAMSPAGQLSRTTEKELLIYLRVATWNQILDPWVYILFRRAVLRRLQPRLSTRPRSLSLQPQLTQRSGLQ
Protocol: After human platelet suspension was pretreated with dimethyl sulfoxide (DMSO) or sofalcone (SFC) (FIG. 5A), sofalcone derivative 3 (FIG. 5B), and sofalcone derivative 30 (FIG. 5C), different concentrations of U46619 (0.1-10 μM) were added to stimulate platelet aggregation reaction. Data are presented as mean±standard error of the mean (n=5).
(§1) Blood samples were collected from healthy donors, and acid-citrate-dextrose (ACD) solution was used as an anticoagulant. The blood samples were centrifuged to obtain platelets, and residual plasma was removed by washing to prepare platelet suspension.
In the experimental method, a platelet aggregometer (Chrono-Log Co., Havertown, PA, USA) was used for tests. The compound to be tested was added to the platelet suspension and reacted for 3 minutes at 37° C. with stirring (1200 rpm). Then, platelet stimulator U46619 or collagen was added to initiate platelet aggregation, and the test time was 5 minutes. The principle of the platelet aggregation test was: when platelets were stimulated to induce aggregation reaction, the light transmission of the platelet suspension would increase; by calculating changes in light transmission of the platelet suspension before and after being stimulated, the percentage of platelet aggregation could be obtained.
After pretreating human platelet suspensions with dimethylsulfoxide (DMSO), sofalcone (20 μM and 50 μM), and sofalcone derivatives 3 or 30 (0.2 μM and 0.5 μM, respectively), different concentrations of U46619 (0.1-10 μM) were added to stimulate platelet aggregation.

[2] = test system: PGE2 formation in human platelet suspensions; assay: Measurement of platelet PGE2 level after arachidonic acid; assay type: cell-based; conditions: AA 100 μM; human platelet suspension
Protocol: (§2) FIGS. 6A and 6B show the effect of sofalcone and its derivatives on TxB2 and PGE2 productions induced by arachidonic acid (AA). […] After human platelet suspension was pretreated with dimethyl sulfoxide (DMSO) or sofalcone (SFC), sofalcone derivative 3, and sofalcone derivative 30, arachidonic acid (100 μM) was added to stimulate the productions of arachidonic acid metabolites TxB2 and PGE2. Data are presented as mean±standard error of the mean (n>5). Compared with the control group, *P<0.05, **P<0.01, ***P<0.001. ASA: Aspirin.
as §1
(§3) The compound to be tested was added to the platelet suspension and reacted for 3 minutes at 37° C. under stirring (1200 rpm), then arachidonic acid (AA) (100 μM) was added to react for 4 minutes, and finally EDTA (5 mM) was added to terminate the reaction. The above sample was centrifuged at 13,000 rpm for 1 minute at 4° C. and the supernatant was collected. The concentrations of TxB2 and PGE2 in the supernatant were measured respectively using enzyme immunoassay kits (TxB2 ELISA kit and PGE2 ELISA kit; Cayman Chemical Company).

[3] = test system: TxB2 formation in human platelet suspensions; assay: Measurement of platelet TxB2 level after arachidonic acid; assay type: cell-based; conditions: AA 100 μM; human platelet suspension
Protocol: as §2, §1, §3

[4] = test system: normal hemostatic function (tail bleeding); assay: Mouse bleeding test (tail bleeding time); assay type: in vivo, BALB/c mice
Protocol: Mice were orally administered by gavage with sofalcone (SFC, once daily for 4 days), derivative 17, or aspirin (ASA) (single administration only). Then the mouse's tail was transected and the tail bleeding time was recorded. Data are presented as mean±standard error of the mean (n≥6). Compared with the control group, ***P<0.001. n.s.: No significant difference. In the present invention, the effect of the to-be-tested compound on normal hemostasis was evaluated by docking off the tail ends of the mice to cause bleeding. The to-be-tested compound was orally administered to BALB/c mice aged approximately 6-8 weeks by gavage. Then, the mice were anesthetized with isoflurane, and 2 mm of the distal end of their tails were excised. The tails of the mice were immersed in physiological saline at 37° C., and the bleeding time was observed. The determination of bleeding time was: the time required from the time the mouse tail was cut off until the bleeding completely stopped.

[5] = test system: human platelet suspension (platelet aggregation caused by collagen); assay: Platelet aggregation reaction test, collagen-induced; assay type: cell-based; conditions: read-out: Collagen IC 50
Method in brief: (§4)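 Washed platelets from healthy human donors (ACD-anticoagulated blood) were preincubated with compound for 3 min at 37 °C under 1200 rpm stirring. Aggregation was then triggered with U46619 or collagen and followed for 5 min by light transmission aggregometry. Percent aggregation came from the change in transmission before and after stimulation.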

[6] = test system: human platelet suspension (platelet aggregation caused by TxA2 agonist U46619); assay: Platelet aggregation reaction test, U46619-induced; assay type: cell-based
Method in brief: as §4

human recombinant COX1 = target: T2, human recombinant COX1 (Homo sapiens, UniProt P23219); assay: COX1 enzyme activity assay; assay type: biochemical
T2 construct: purchased Cayman Chemical Company
T2 sequence (P23219 24-599): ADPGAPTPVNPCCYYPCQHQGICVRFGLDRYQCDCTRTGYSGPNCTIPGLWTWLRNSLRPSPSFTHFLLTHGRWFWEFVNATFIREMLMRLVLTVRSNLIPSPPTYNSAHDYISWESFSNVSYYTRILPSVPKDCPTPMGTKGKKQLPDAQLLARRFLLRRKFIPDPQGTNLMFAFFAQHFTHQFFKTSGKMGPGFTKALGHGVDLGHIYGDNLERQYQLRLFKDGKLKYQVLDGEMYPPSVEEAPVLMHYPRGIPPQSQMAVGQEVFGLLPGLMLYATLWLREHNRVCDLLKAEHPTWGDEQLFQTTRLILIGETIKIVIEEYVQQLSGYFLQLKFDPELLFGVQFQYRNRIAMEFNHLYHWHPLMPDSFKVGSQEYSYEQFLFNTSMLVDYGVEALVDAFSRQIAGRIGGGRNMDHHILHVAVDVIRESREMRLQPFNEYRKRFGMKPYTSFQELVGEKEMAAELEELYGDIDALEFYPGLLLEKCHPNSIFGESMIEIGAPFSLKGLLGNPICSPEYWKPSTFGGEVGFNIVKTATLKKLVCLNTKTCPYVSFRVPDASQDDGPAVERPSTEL
Protocol: (§5) COX1 and COX2 enzyme activities were analyzed by using a human COX inhibitor screening assay kit (Cayman Chemical Company). After allowing the to-be-tested compound, human recombinant COX1 or COX2 enzyme and heme to stand at 37° C. for 15 minutes, AA (10 μM) was added to react for 2 minutes. Then, stannous chloride was added to reduce PGH2, the product of the above COX reaction, to PGF2α. Finally, the PGF2α level in the sample was measured by using enzyme immunoassay, and the inhibition percentage was calculated.

human recombinant COX2 = target: T3, human recombinant COX2 (Homo sapiens, UniProt P35354); assay: COX2 enzyme activity assay; assay type: biochemical
T3 construct: purchased Cayman Chemical Company
T3 sequence (P35354 18-604): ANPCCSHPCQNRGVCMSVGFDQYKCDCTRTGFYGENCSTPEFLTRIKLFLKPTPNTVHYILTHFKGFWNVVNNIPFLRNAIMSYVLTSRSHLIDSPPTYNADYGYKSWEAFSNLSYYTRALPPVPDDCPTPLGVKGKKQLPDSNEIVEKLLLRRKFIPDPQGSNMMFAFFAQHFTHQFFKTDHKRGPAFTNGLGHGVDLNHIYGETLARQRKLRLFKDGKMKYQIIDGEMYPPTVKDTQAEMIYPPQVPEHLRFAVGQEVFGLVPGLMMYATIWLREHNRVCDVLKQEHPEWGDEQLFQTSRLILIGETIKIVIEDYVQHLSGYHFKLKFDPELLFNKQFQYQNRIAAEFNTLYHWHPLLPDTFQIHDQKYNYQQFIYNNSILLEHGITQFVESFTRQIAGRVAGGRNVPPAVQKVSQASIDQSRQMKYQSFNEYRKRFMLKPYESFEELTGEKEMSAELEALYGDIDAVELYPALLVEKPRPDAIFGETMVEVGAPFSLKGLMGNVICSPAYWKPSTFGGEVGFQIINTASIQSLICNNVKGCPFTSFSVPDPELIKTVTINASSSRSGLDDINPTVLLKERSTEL
Protocol: as §5

Structure (SMILES) | mode of action at TxA2 receptor (TxA2 receptor) | formation of PGE2 induced by arachidonic acid [2] | formation of TxB2 induced by arachidonic acid [3] | IC50 [5] [µM] | IC50 [6] [µM] | carotid artery occlusion time ([1]; single dose 25 mg/kg) | U46619 concentration-platelet aggregation response curve (TxA2 receptor; pretreatment 0.2 μM and 0.5 μM) | maximum level of platelet aggregation (TxA2 receptor; pretreatment 0.2 μM and 0.5 μM) | also measured
CC(C)=CCOc1ccc(/C=C/C(=O)c2ccc(OCC=C(C)C)cc2OCC(=O)O)cc1 [SFC, sofalcone] | competitively antagonize | did not inhibit | did not inhibit | 49 | 16 |  |  |  | carotid artery occlusion time ([1]; 50 mg/kg per day for 4 days): significantly prolonged; U46619 concentration-platelet aggregation response curve (TxA2 receptor; pretreatment 20 μM and 50 μM): shifted parallelly to the right; maximum level of platelet aggregation (TxA2 receptor; pretreatment 20 μM and 50 μM): not significantly affected; tail bleeding time ([4]; mice, oral gavage, 50 mg/kg per day for 4 days): did not affect
CC(=O)Oc1ccccc1C(=O)O [Aspirin, reference compound] |  | inhibited | inhibited | 79 | > 200 | prolonged |  |  | inhibition at 200 µM (human recombinant COX1; read-out: COX1 (Inhibition rate %)): 26%; tail bleeding time ([4]; mice, oral gavage, single dose 25 mg/kg): significantly prolonged
CC(C)=CCOc1ccc(/C=C/C(=O)c2ccc(OCC=C(C)C)cc2OCCCC(=O)O)cc1 [Compound 30] | competitively antagonize | did not inhibit | did not inhibit | 0.38 | 0.04 |  | shifted parallelly to the right | not significantly affected | 
CC(C)=CCOc1ccc(/C=C/C(=O)c2ccc(OCC=C(C)C)cc2OCCCC(=O)[O-])cc1.[K+] [Compound 17] |  |  |  | 0.32 | 0.04 | significantly prolonged |  |  | carotid artery occlusion time ([1]; single dose 10 mg/kg): significantly prolonged; tail bleeding time ([4]; mouse, in vivo, po, 10 mg/kg): did not affect; tail bleeding time ([4]; mouse, in vivo, po, 25 mg/kg): did not affect
O=C(O)CCCOc1ccccc1C(=O)/C=C/c1ccc(F)cc1 [Compound 3] | competitively antagonize | inhibited | inhibited | 0.03 | 0.07 |  | shifted parallelly to the right | not significantly affected | COX2 (Inhibition rate %) (human recombinant COX2; 10 μM): 26.7%; COX2 (Inhibition rate %) (human recombinant COX2; 100 μM): 48.6%; COX1 (Inhibition rate %) (human recombinant COX1; 1 μM): 19.1%; COX1 (Inhibition rate %) (human recombinant COX1; 10 μM): 61.6%; COX1 (Inhibition rate %) (human recombinant COX1; 100 μM): 89.8%; COX1 versus COX2 inhibitory effect (human recombinant COX1; human recombinant COX1 and COX2, 1-100 μM): better inhibitory effect on COX1
